In PubChem BioAssay (NCI):
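The compound was tested at five concentrations on cells cultured in 96-well plates, with a 48-hour exposure period. GI50 is the concentration that inhibits growth by half. TGI: total growth inhibition.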

Experiments:
Assay in all cases: NCI anticancer screen, dose series, 48 h
K-562 leukemia = test system: K-562 leukemia
U251 CNS = test system: U251 CNS
KM12 colon = test system: KM12 colon
OVCAR-8 ovarian = test system: OVCAR-8 ovarian
PC-3 prostate = test system: PC-3 prostate
NCI-H23 lung = test system: NCI-H23 lung
BT-549 breast = test system: BT-549 breast
HCT-15 colon = test system: HCT-15 colon
SN12C renal = test system: SN12C renal
OVCAR-4 ovarian = test system: OVCAR-4 ovarian
SNB-19 CNS = test system: SNB-19 CNS
SF-539 CNS = test system: SF-539 CNS
HS 578T breast = test system: HS 578T breast
HCC-2998 colon = test system: HCC-2998 colon
786-0 renal = test system: 786-0 renal
CCRF-CEM leukemia = test system: CCRF-CEM leukemia
NCI-H226 lung = test system: NCI-H226 lung
UACC-62 melanoma = test system: UACC-62 melanoma
SF-295 CNS = test system: SF-295 CNS
SK-MEL-28 melanoma = test system: SK-MEL-28 melanoma
HCT-116 colon = test system: HCT-116 colon
SR leukemia = test system: SR leukemia
ACHN renal = test system: ACHN renal
NCI-H522 lung = test system: NCI-H522 lung
MDA-MB-435 = test system: MDA-MB-435
RXF 393 renal = test system: RXF 393 renal
SK-MEL-5 melanoma = test system: SK-MEL-5 melanoma
CAKI-1 renal = test system: CAKI-1 renal
SK-OV-3 ovarian = test system: SK-OV-3 ovarian
HOP-62 NSCLC = test system: HOP-62 NSCLC
OVCAR-5 ovarian = test system: OVCAR-5 ovarian
SK-MEL-2 melanoma = test system: SK-MEL-2 melanoma
COLO 205 colon = test system: COLO 205 colon
EKVX NSCLC = test system: EKVX NSCLC
RPMI-8226 leukemia = test system: RPMI-8226 leukemia
MCF7 breast = test system: MCF7 breast
TK-10 renal = test system: TK-10 renal
IGROV1 ovarian = test system: IGROV1 ovarian
A549 NSCLC = test system: A549 NSCLC
HL-60(TB) leukemia = test system: HL-60(TB) leukemia
UACC-257 melanoma = test system: UACC-257 melanoma
MALME-3M melanoma = test system: MALME-3M melanoma
LOX IMVI melanoma = test system: LOX IMVI melanoma
UO-31 renal = test system: UO-31 renal
MDA-MB-231 breast = test system: MDA-MB-231 breast
A498 renal = test system: A498 renal
T-47D breast = test system: T-47D breast
OVCAR-3 ovarian = test system: OVCAR-3 ovarian
HOP-92 NSCLC = test system: HOP-92 NSCLC
SF-268 CNS = test system: SF-268 CNS
SW-620 colon = test system: SW-620 colon
DU-145 prostate = test system: DU-145 prostate
M14 melanoma = test system: M14 melanoma
NCI-H460 lung = test system: NCI-H460 lung
MOLT-4 leukemia = test system: MOLT-4 leukemia
SNB-75 CNS = test system: SNB-75 CNS
HT29 colon = test system: HT29 colon

In the case of `COc1cc(OC)c(/C=C/S(=O)(=O)Cc2ccc(OC)c(N)n2)c(OC)c1`, the GI50 (K-562 leukemia) is reported as less than 10 nM, the TGI (K-562 leukemia) is reported as greater than 100000 nM and the GI50 (U251 CNS) is reported as less than 10 nM. For the same compound, the TGI (U251 CNS) was greater than 100000 nM, the GI50 (KM12 colon) was less than 10 nM and the TGI (KM12 colon) was greater than 100000 nM. For the same compound, the GI50 (OVCAR-8 ovarian) was less than 18 nM, the TGI (OVCAR-8 ovarian) was greater than 100000 nM and the GI50 (PC-3 prostate) was less than 10 nM. For the same compound, the TGI (PC-3 prostate) was greater than 100000 nM, the GI50 (NCI-H23 lung) was less than 24.7 nM and the TGI (NCI-H23 lung) was greater than 100000 nM. It also gave a GI50 (BT-549 breast) of less than 10 nM, a TGI (BT-549 breast) greater than 100000 nM and a GI50 (HCT-15 colon) of less than 10 nM. For the same compound, the TGI (HCT-15 colon) was greater than 100000 nM, the GI50 (SN12C renal) was less than 17.1 nM and the TGI (SN12C renal) was greater than 100000 nM. It also gave a GI50 (OVCAR-4 ovarian) of 27.2 nM, a TGI (OVCAR-4 ovarian) greater than 100000 nM and a TGI (SNB-19 CNS) greater than 100000 nM. It also gave a GI50 (SF-539 CNS) of less than 10 nM, a TGI (SF-539 CNS) of less than 10 nM and a GI50 (HS 578T breast) of less than 10 nM. The TGI (HS 578T breast) was greater than 100000 nM, the GI50 (HCC-2998 colon) was less than 19.3 nM and the TGI (HCC-2998 colon) was greater than 100000 nM. It also gave a GI50 (786-0 renal) of less than 10 nM, a TGI (786-0 renal) greater than 100000 nM and a GI50 (CCRF-CEM leukemia) of less than 15.7 nM. It also gave a TGI (CCRF-CEM leukemia) greater than 100000 nM, a TGI (NCI-H226 lung) greater than 100000 nM and a GI50 (UACC-62 melanoma) of less than 10 nM. For the same compound, the TGI (UACC-62 melanoma) was greater than 100000 nM, the GI50 (SF-295 CNS) was less than 10 nM and the TGI (SF-295 CNS) was greater than 100000 nM. It also gave a TGI (SK-MEL-28 melanoma) greater than 100000 nM, a GI50 (HCT-116 colon) of less than 10 nM and a TGI (HCT-116 colon) greater than 100000 nM. For the same compound, the GI50 (SR leukemia) was less than 10 nM, the TGI (SR leukemia) was greater than 100000 nM and the GI50 (ACHN renal) was less than 10 nM. It also gave a TGI (ACHN renal) greater than 100000 nM, a GI50 (NCI-H522 lung) of less than 10 nM and a GI50 (MDA-MB-435) of less than 10 nM. The TGI (MDA-MB-435) was less than 10 nM, the GI50 (RXF 393 renal) was less than 10 nM and the TGI (RXF 393 renal) was greater than 100000 nM. It also gave a GI50 (SK-MEL-5 melanoma) of less than 10 nM, a TGI (SK-MEL-5 melanoma) of 11.6 nM and a GI50 (CAKI-1 renal) of less than 10 nM. The TGI (CAKI-1 renal) was greater than 100000 nM, the GI50 (SK-OV-3 ovarian) was less than 10 nM and the TGI (SK-OV-3 ovarian) was greater than 100000 nM. It also gave a GI50 (HOP-62 NSCLC) of less than 10 nM, a TGI (HOP-62 NSCLC) greater than 100000 nM and a GI50 (OVCAR-5 ovarian) of less than 25.6 nM. For the same compound, the TGI (OVCAR-5 ovarian) was greater than 100000 nM, the TGI (SK-MEL-2 melanoma) was greater than 100000 nM and the GI50 (COLO 205 colon) was less than 10 nM. The TGI (COLO 205 colon) was less than 10 nM, the GI50 (EKVX NSCLC) was 27.8 nM and the TGI (EKVX NSCLC) was greater than 100000 nM. The GI50 (RPMI-8226 leukemia) was less than 17.2 nM, the TGI (RPMI-8226 leukemia) was greater than 85900 nM and the GI50 (MCF7 breast) was less than 10 nM. For the same compound, the TGI (MCF7 breast) was greater than 100000 nM, the GI50 (TK-10 renal) was greater than 100000 nM and the TGI (TK-10 renal) was greater than 100000 nM. The GI50 (IGROV1 ovarian) was less than 12.2 nM, the TGI (IGROV1 ovarian) was greater than 100000 nM and the GI50 (A549 NSCLC) was less than 10 nM. It also gave a TGI (A549 NSCLC) greater than 100000 nM, a GI50 (HL-60(TB) leukemia) of less than 10 nM and a TGI (HL-60(TB) leukemia) of less than 27.3 nM. For the same compound, the GI50 (UACC-257 melanoma) was greater than 100000 nM, the TGI (UACC-257 melanoma) was greater than 100000 nM and the GI50 (MALME-3M melanoma) was greater than 100000 nM. It also gave a TGI (MALME-3M melanoma) greater than 100000 nM, a GI50 (LOX IMVI melanoma) of less than 10 nM and a TGI (LOX IMVI melanoma) greater than 100000 nM. It also gave a GI50 (UO-31 renal) of less than 12.6 nM, a TGI (UO-31 renal) greater than 100000 nM and a GI50 (MDA-MB-231 breast) of less than 24.8 nM. The TGI (MDA-MB-231 breast) was greater than 100000 nM, the GI50 (A498 renal) was less than 10 nM and the GI50 (T-47D breast) was 57300 nM. The TGI (T-47D breast) was greater than 100000 nM, the GI50 (OVCAR-3 ovarian) was less than 10 nM and the TGI (OVCAR-3 ovarian) was less than 10 nM. The GI50 (HOP-92 NSCLC) was 93 nM, the TGI (HOP-92 NSCLC) was greater than 100000 nM and the GI50 (SF-268 CNS) was less than 10 nM. For the same compound, the TGI (SF-268 CNS) was greater than 100000 nM, the GI50 (SW-620 colon) was less than 10 nM and the TGI (SW-620 colon) was greater than 100000 nM. For the same compound, the GI50 (DU-145 prostate) was less than 10 nM, the TGI (DU-145 prostate) was greater than 100000 nM and the GI50 (M14 melanoma) was less than 10 nM. For the same compound, the TGI (M14 melanoma) was greater than 100000 nM, the GI50 (NCI-H460 lung) was less than 10 nM and the GI50 (MOLT-4 leukemia) was less than 21.4 nM. The TGI (MOLT-4 leukemia) was greater than 100000 nM, the TGI (SNB-75 CNS) was greater than 100000 nM and the GI50 (HT29 colon) was less than 17.4 nM. For the same compound, the TGI (HT29 colon) was greater than 54800 nM.
